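Briefly, cells in 96-well plates were exposed to five compound concentrations for 48 h, and endpoints were estimated by linear interpolation. GI50 marks 50% less growth. TGI marks complete inhibition of growth.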
Assays:
Assay in all cases: growth of human tumour cells (NCI), 48 h
MDA-MB-435 = test system: MDA-MB-435
HOP-62 NSCLC = test system: HOP-62 NSCLC
HOP-92 NSCLC = test system: HOP-92 NSCLC
HCT-116 colon = test system: HCT-116 colon
MOLT-4 leukemia = test system: MOLT-4 leukemia
A498 renal = test system: A498 renal
SNB-19 CNS = test system: SNB-19 CNS
T-47D breast = test system: T-47D breast
OVCAR-5 ovarian = test system: OVCAR-5 ovarian
NCI-H522 lung = test system: NCI-H522 lung
UACC-257 melanoma = test system: UACC-257 melanoma
BT-549 breast = test system: BT-549 breast
DU-145 prostate = test system: DU-145 prostate
RXF 393 renal = test system: RXF 393 renal
MDA-MB-231 breast = test system: MDA-MB-231 breast
OVCAR-3 ovarian = test system: OVCAR-3 ovarian
PC-3 prostate = test system: PC-3 prostate
NCI-H460 lung = test system: NCI-H460 lung
ACHN renal = test system: ACHN renal
HL-60(TB) leukemia = test system: HL-60(TB) leukemia
SW-620 colon = test system: SW-620 colon
SF-268 CNS = test system: SF-268 CNS
SF-295 CNS = test system: SF-295 CNS
SK-OV-3 ovarian = test system: SK-OV-3 ovarian
SF-539 CNS = test system: SF-539 CNS
SK-MEL-5 melanoma = test system: SK-MEL-5 melanoma
K-562 leukemia = test system: K-562 leukemia
MCF7 breast = test system: MCF7 breast
UO-31 renal = test system: UO-31 renal
OVCAR-4 ovarian = test system: OVCAR-4 ovarian
NCI-H23 lung = test system: NCI-H23 lung
HS 578T breast = test system: HS 578T breast
CCRF-CEM leukemia = test system: CCRF-CEM leukemia
HT29 colon = test system: HT29 colon
KM12 colon = test system: KM12 colon
HCT-15 colon = test system: HCT-15 colon
SN12C renal = test system: SN12C renal
HCC-2998 colon = test system: HCC-2998 colon
NCI-H226 lung = test system: NCI-H226 lung
RPMI-8226 leukemia = test system: RPMI-8226 leukemia
TK-10 renal = test system: TK-10 renal
M14 melanoma = test system: M14 melanoma
SNB-75 CNS = test system: SNB-75 CNS
EKVX NSCLC = test system: EKVX NSCLC
IGROV1 ovarian = test system: IGROV1 ovarian
A549 NSCLC = test system: A549 NSCLC
SR leukemia = test system: SR leukemia
LOX IMVI melanoma = test system: LOX IMVI melanoma
OVCAR-8 ovarian = test system: OVCAR-8 ovarian
COLO 205 colon = test system: COLO 205 colon
786-0 renal = test system: 786-0 renal
SK-MEL-28 melanoma = test system: SK-MEL-28 melanoma
MALME-3M melanoma = test system: MALME-3M melanoma
CAKI-1 renal = test system: CAKI-1 renal
U251 CNS = test system: U251 CNS
UACC-62 melanoma = test system: UACC-62 melanoma
MDA-MB-468 breast = test system: MDA-MB-468 breast

Compound: Cc1cc(N=C(N)c2ccccc2)ccc1OCCCCCCCCn1ccnc1
- GI50 (MDA-MB-435): 225 nM
- TGI (MDA-MB-435): 573 nM
- GI50 (HOP-62 NSCLC): 441 nM
- TGI (HOP-62 NSCLC): 15200 nM
- GI50 (HOP-92 NSCLC): 589 nM
- TGI (HOP-92 NSCLC): 7870 nM
- GI50 (HCT-116 colon): 375 nM
- TGI (HCT-116 colon): 11400 nM
- GI50 (MOLT-4 leukemia): 565 nM
- TGI (MOLT-4 leukemia): 17700 nM
- GI50 (A498 renal): 8120 nM
- TGI (A498 renal): 23700 nM
- GI50 (SNB-19 CNS): 753 nM
- TGI (SNB-19 CNS): 17700 nM
- GI50 (T-47D breast): 594 nM
- TGI (T-47D breast): 21500 nM
- GI50 (OVCAR-5 ovarian): 456 nM
- TGI (OVCAR-5 ovarian): 11500 nM
- GI50 (NCI-H522 lung): 245 nM
- TGI (NCI-H522 lung): 986 nM
- GI50 (UACC-257 melanoma): 1470 nM
- TGI (UACC-257 melanoma): 13000 nM
- GI50 (BT-549 breast): 1450 nM
- TGI (BT-549 breast): 11100 nM
- GI50 (DU-145 prostate): 407 nM
- TGI (DU-145 prostate): 14300 nM
- GI50 (RXF 393 renal): 231 nM
- TGI (RXF 393 renal): 1570 nM
- GI50 (MDA-MB-231 breast): 540 nM
- TGI (MDA-MB-231 breast): 4610 nM
- GI50 (OVCAR-3 ovarian): 366 nM
- TGI (OVCAR-3 ovarian): 13100 nM
- GI50 (PC-3 prostate): 460 nM
- TGI (PC-3 prostate): 16500 nM
- GI50 (NCI-H460 lung): 388 nM
- TGI (NCI-H460 lung): 11600 nM
- GI50 (ACHN renal): 547 nM
- TGI (ACHN renal): 13200 nM
- GI50 (HL-60(TB) leukemia): 211 nM
- TGI (HL-60(TB) leukemia): 659 nM
- GI50 (SW-620 colon): 463 nM
- TGI (SW-620 colon): 20900 nM
- GI50 (SF-268 CNS): 1220 nM
- TGI (SF-268 CNS): 16600 nM
- GI50 (SF-295 CNS): 259 nM
- TGI (SF-295 CNS): 929 nM
- GI50 (SK-OV-3 ovarian): 512 nM
- TGI (SK-OV-3 ovarian): 14900 nM
- GI50 (SF-539 CNS): 227 nM
- TGI (SF-539 CNS): 567 nM
- GI50 (SK-MEL-5 melanoma): 325 nM
- TGI (SK-MEL-5 melanoma): 1170 nM
- GI50 (K-562 leukemia): 283 nM
- TGI (K-562 leukemia): 11200 nM
- GI50 (MCF7 breast): 312 nM
- TGI (MCF7 breast): 10700 nM
- GI50 (UO-31 renal): 680 nM
- TGI (UO-31 renal): 8270 nM
- GI50 (OVCAR-4 ovarian): 2890 nM
- TGI (OVCAR-4 ovarian): 35300 nM
- GI50 (NCI-H23 lung): 262 nM
- TGI (NCI-H23 lung): 4060 nM
- GI50 (HS 578T breast): 991 nM
- TGI (HS 578T breast): 12100 nM
- GI50 (CCRF-CEM leukemia): 371 nM
- TGI (CCRF-CEM leukemia): 12400 nM
- GI50 (HT29 colon): 239 nM
- TGI (HT29 colon): 667 nM
- GI50 (KM12 colon): 444 nM
- TGI (KM12 colon): 13600 nM
- GI50 (HCT-15 colon): 361 nM
- TGI (HCT-15 colon): 11500 nM
- GI50 (SN12C renal): 440 nM
- TGI (SN12C renal): 7870 nM
- GI50 (HCC-2998 colon): 224 nM
- TGI (HCC-2998 colon): 1760 nM
- GI50 (NCI-H226 lung): 332 nM
- TGI (NCI-H226 lung): 1790 nM
- GI50 (RPMI-8226 leukemia): 352 nM
- TGI (RPMI-8226 leukemia): 1630 nM
- GI50 (TK-10 renal): 1460 nM
- TGI (TK-10 renal): 17200 nM
- GI50 (M14 melanoma): 323 nM
- TGI (M14 melanoma): 1310 nM
- GI50 (SNB-75 CNS): 418 nM
- TGI (SNB-75 CNS): 7300 nM
- GI50 (EKVX NSCLC): 422 nM
- TGI (EKVX NSCLC): 13300 nM
- GI50 (IGROV1 ovarian): 634 nM
- TGI (IGROV1 ovarian): 12400 nM
- GI50 (A549 NSCLC): 803 nM
- TGI (A549 NSCLC): 14900 nM
- GI50 (SR leukemia): 327 nM
- TGI (SR leukemia): 19400 nM
- GI50 (LOX IMVI melanoma): 327 nM
- TGI (LOX IMVI melanoma): 1860 nM
- GI50 (OVCAR-8 ovarian): 471 nM
- TGI (OVCAR-8 ovarian): 2950 nM
- GI50 (COLO 205 colon): 354 nM
- TGI (COLO 205 colon): 1450 nM
- GI50 (786-0 renal): 483 nM
- TGI (786-0 renal): 4580 nM
- GI50 (SK-MEL-28 melanoma): 1010 nM
- TGI (SK-MEL-28 melanoma): 8680 nM
- GI50 (MALME-3M melanoma): 323 nM
- TGI (MALME-3M melanoma): 1590 nM
- GI50 (CAKI-1 renal): 580 nM
- TGI (CAKI-1 renal): 12000 nM
- GI50 (U251 CNS): 355 nM
- TGI (U251 CNS): 3100 nM
- GI50 (UACC-62 melanoma): 494 nM
- TGI (UACC-62 melanoma): 7580 nM
- GI50 (MDA-MB-468 breast): 155 nM
- TGI (MDA-MB-468 breast): 694 nM

From PubChem BioAssay (NCI)
